Measured values published in US9581598B2, “Diagnosis and treatment of brain tumor” (Sanford-Burnham Medical Research Institute, priority 2012, dated 2017).
Entries after “also recorded” stand apart in the source; their conditions may differ. Values belong to the molecule of their own block, whether it stands above or below them. Where a SMILES comes first, the peptide text is derived from it. The star is where a group is joined. DTPA(central) = O=C(O)CN(CCN(CCN(CC(=O)O)CC(=O)O)CC(=O)*)CC(=O)O; FITC = O=C1OC2(c3ccc(O)cc3Oc3cc(O)ccc32)c2ccc(NC(=S)*)cc21

Experiments:
[1] = tested on: HifKO murine astrocytoma cells; assay: targeted treatment of tumor bearing mice; assay type: in vivo; settings: day 14
Protocol: Immunocompromised (Balb/c nu/nu) mice were implanted with HifKO murine astrocytoma cells (Blouw et al. 2003). Treatment with saline (PBS), free chlorambusil (Cbl) and targeted drug (chlorambusil conjugated to CooP peptide; CooP—CPP-Cbl, 5 mg/kg) was started at day 5 post-implantation and continued every second day until day 14.

i.c. U87MG tumor = tested on: i.c. U87MG tumor; design: species or system mice; settings: mouse, in vivo
Protocol: The DTPA conjugated peptides (20 μg per animal) were mixed with 0.2 M NaAc (pH 5) and 5 MBq of ^111Indiumchloride (^111InCl3, Mallinckrodt, Le Petten, Netherlands) per animal was added to the mixture. The total volume of the solution was calculated to be 100 μl/animal. The reaction mixture was incubated for an hour at RT and the radiochemical purity was measured by using an instant thin-layer chromatography (ITLC-SG, Pall Corporation, USA) on a 13×1.5 cm strip using 0.3 M NaCit (pH 5) as a mobile phase. The radiochemical purity of the peptides was 99-100%.
The imaging studies were performed two weeks post U87MG tumor implantation. For SPECT/CT (single photon emission computed tomography-computed tomography) imaging animals were anesthetized with 1-3% isoflurane in N2/O2 at a 70:30 ratio. The radiolabeled peptide (100 μl) was injected into the tail vein followed by SPECT imaging using a combined small animal SPECT/CT (Gamma Medica Inc., Northridge, Calif.) with dual gamma camera modality. Medium energy parallel hole collimators were used in all gamma imaging with a 171/245/[…] keV energy window for ^111In. Planar two-dimensional imaging for all animals was performed at earliest possible time point after injection with 60 s acquisition time/image up to 30 minutes. For 3D imaging total of 64 projections, (120 s/projection) were used. The matrix size was 80×80 in 125×125 mm^2 field of view (FOV). […]
After the last imaging session animals were sacrificed with CO2 and tissue samples were collected. Major organs and tissues (blood, heart, lungs, liver, spleen, left kidney, duodenum, ovaries, fat, muscle, skin, brain and brain tumor) were weighed, and the radioactivity in each organ or tissue sample was measured in an automated gamma counter (Clinigamma, Turku, Finland). The counts obtained were corrected for the background radiation and physical decay, and tissue radioactivity was expressed as percentage of the injected dose per gram of tissue (% ID/g)±SD.

i.c HIFko astrocytoma = assay: tissue localization of fluorescein-labeled peptide after i.v. injection; assay type: in vivo, mice
Protocol: (§1) Athymic female Balb/c nu-nu mice (4-6 wks) from Taconic Europe were used in all tumor experiments. Establishment of the intracranial tumors has been described (Blouw et al., 2003). In brief, 50 000 HIFko, VEGF+, U87MG, U87-GFP, U87-MDGI-GFP or BT4C tumor cells in phosphate buffered saline (PBS) or DMEM were injected through the skull using a Hamilton syringe (no 84855), 2 mm right from the bregma at the depth of 3 mm in the brain parenchyma. Mice were used for some experiments 10-15 days after tumor cell inoculation. In experiments studying the role of MDGI in tumor progression and invasiveness, mice were used 10-21 days after tumor cell inoculation. To establish subcutaneous tumors, 2-5×10^6 cells were grafted subcutaneously on the abdominal side of the mice (in some experiments) or into the mammary fat pad, in other experiments. All animal studies were conducted according to the guidelines of the Provincial Government of Southern Finland and the protocol was approved by the Experimental Animal Committee.
Intravenously injected fluorescein-labeled peptides ([…]) and antibodies (20 μg/animal) were allowed to circulate for one hour followed by perfusion through the heart with 10 ml of phosphate buffered saline (PBS) and 10 ml of 4% paraformaldehyde (PFA) in PBS. Tumors and organs were excised, PFA-fixed and soaked in 30% sucrose (w/v) overnight. Tissues were frozen in the OCT embedding medium (Tissue-Tek). Sections (5-10 μm) were cut for histological analyses. To detect the in vivo distribution of the fluorescein-labeled peptides, sections were stained with a rabbit anti-FITC antibody (Zymed Laboratories, San Francisco, USA). […] Sections were examined under an inverted fluorescence microscope (Axioplan).

[2] = tested on: MDGI-expressing MDA-MB-231 xenografts; assay: homing of fluorescein-labeled peptide after i.v. injection; assay type: in vivo, mice
Protocol: (§2) Intravenously injected fluorescein-labeled peptides (100 μl of 1 mM solution) and antibodies (20 μg/animal) were allowed to circulate for one hour followed by perfusion through the heart with 10 ml of phosphate buffered saline (PBS) and 10 ml of 4% paraformaldehyde (PFA) in PBS. Tumors and organs were excised, PFA-fixed and soaked in 30% sucrose (w/v) overnight. Tissues were frozen in the OCT embedding medium (Tissue-Tek). Sections (5-10 μm) were cut for histological analyses. To detect the in vivo distribution of the fluorescein-labeled peptides, sections were stained with a rabbit anti-FITC antibody (Zymed Laboratories, San Francisco, USA). To visualize blood vessels, MDGI and tumor cells, sections were stained with the rat anti-mouse CD31 (BD Pharmingen), goat or rabbit anti-MDGI (Santa Cruz Biotechnology, USA), or a rabbit anti-SV40 large T antigen (a kind gift from Dr. Hanahan, ISREC, Switzerland) antibodies followed by the Alexa-594 and Alexa-488 conjugated secondary antibodies (Molecular Probes, Eugene, Oreg., USA). Nuclei were visualized with DAPI (Vector Laboratories, Burlingame). Sections were examined under an inverted fluorescence microscope (Axioplan).
To obtain an MDA-MB-231 breast tumor cell line stably expressing the MDGI as a c-Myc fusion protein, cells were transfected with the pcDNA3-9E10-MDGI plasmid as described herein. […]

[3] = tested on: tumors established from the HIFko cells implanted subcutaneously; assay: as above; assay type: in vivo, mice; settings: subcutaneous HIFko tumors
Protocol: as §1, §2

[4] = tested on: intracranial U87MG human glioma xenografts; assay: as above; assay type: in vivo, mice; settings: intravenous injection
Protocol: as §1, §2

[5] = tested on: astrocytomas overexpressing VEGF; assay: as above; assay type: in vivo, mice; settings: angiogenic vessels
Protocol: as §1, §2

[6] = tested on: rat BT4C glioma xenografts; assay: as above; assay type: in vivo, mice; settings: intravenous injection
Protocol: as §1, §2

[7] = tested on: orthotopic MDA-MB-231 human breast cancer xenografts; assay: as above; assay type: in vivo, mice; settings: intravenous injection; parental MDA-MB-231
Protocol: as §1, §2

Molecule: O=C(O)CCCc1ccc(N(CCCl)CCCl)cc1 [chlorambusil]
condition of the animals at end of experiment [1]: poor condition of the animals

accumulation in the tumor tissue (i.c. U87MG tumor): No accumulation
Molecule: CC(C)C[C@H](NC(=O)[C@H](C)NC(=O)[C@H](C)NC(=O)[C@@H](NC(=O)[C@H](CS)NC(=O)[C@H](C)NC(=O)CN(CCN(CC(=O)O)CC(=O)O)CCN(CC(=O)O)CC(=O)O)C(C)C)C(=O)N[C@@H](CC(N)=O)C(=O)N[C@@H](C)C(=O)N[C@@H](CC(=O)O)C(=O)NCC(N)=O [^111In-labeled control peptide, NH2-ACVAALNADG-CONH2, metal not drawn, reference compound]

Molecule: FITC-CooP: synthetic CooP peptide conjugated to fluorescein (Ac-K(FITC)ACGLSGLGVA-NH2)
peptide localization in tumor (i.c HIFko astrocytoma; 100 μM, 100 μl/animal i.v., 60 minutes circulation): accumulated in the tumor islets in the brain
peptide-derived fluorescence in the kidneys and the choroid plexus (i.c HIFko astrocytoma; i.v.): Some peptide-derived fluorescence was observed
peptide in surrounding histologically normal brain or other tissues (i.c HIFko astrocytoma; i.v., 60 minutes circulation): not detected

tumor half to healthy brain half ratio (i.c. U87MG tumor): up to 20:1
plasma clearance (i.c. U87MG tumor; iv, 20 ug): rapid
Molecule: CC(C)C[C@H](NC(=O)CNC(=O)[C@H](CO)NC(=O)[C@H](CC(C)C)NC(=O)CNC(=O)[C@H](CS)NC(=O)[C@H](C)NC(=O)CN(CCN(CC(=O)O)CC(=O)O)CCN(CC(=O)O)CC(=O)O)C(=O)NCC(=O)N[C@H](C(=O)N[C@@H](C)C(N)=O)C(C)C [^111In-CooP, metal not drawn] ({DTPA(central)}-ACGLSGLGVA-NH2)

Molecule: NH2-ACGLSGLGVA-CONH2 (H-ACGLSGLGVA-NH2) [CooP peptide, core …]
homing to tumor [2]: homed with high efficiency
homing to tumor [3]: did not home
homing to tumor [4]: homed efficiently
homing to tumor [5]: did not home
homing to tumor [6]: to a lesser yet detectable extent
peptide detected in tumor [7]: No CooP peptide was detected; also recorded: only negligible amount of the peptide was detected
